Assay results reported in PubChem BioAssay (NCI).
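48-hour exposure; five concentrations; linearly interpolated endpoints. Here, GI50 denotes the concentration required for 50% inhibition of growth. TGI: total growth inhibition.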

Key:
Assay in all cases: DTP human tumour cell line panel, 48 h
NCI-H522 lung = test system: NCI-H522 lung
CAKI-1 renal = test system: CAKI-1 renal
HCT-15 colon = test system: HCT-15 colon
BT-549 breast = test system: BT-549 breast
OVCAR-5 ovarian = test system: OVCAR-5 ovarian
HOP-92 NSCLC = test system: HOP-92 NSCLC
ACHN renal = test system: ACHN renal
SNB-19 CNS = test system: SNB-19 CNS
SK-MEL-2 melanoma = test system: SK-MEL-2 melanoma
COLO 205 colon = test system: COLO 205 colon
DU-145 prostate = test system: DU-145 prostate
HCT-116 colon = test system: HCT-116 colon
M14 melanoma = test system: M14 melanoma
K-562 leukemia = test system: K-562 leukemia
UO-31 renal = test system: UO-31 renal
NCI-H23 lung = test system: NCI-H23 lung
786-0 renal = test system: 786-0 renal
MDA-MB-435 = test system: MDA-MB-435
HS 578T breast = test system: HS 578T breast
IGROV1 ovarian = test system: IGROV1 ovarian
NCI-H226 lung = test system: NCI-H226 lung
SR leukemia = test system: SR leukemia
A549 NSCLC = test system: A549 NSCLC
TK-10 renal = test system: TK-10 renal
MCF7 breast = test system: MCF7 breast
MALME-3M melanoma = test system: MALME-3M melanoma
PC-3 prostate = test system: PC-3 prostate
A498 renal = test system: A498 renal
SK-OV-3 ovarian = test system: SK-OV-3 ovarian
U251 CNS = test system: U251 CNS
SK-MEL-5 melanoma = test system: SK-MEL-5 melanoma
SNB-75 CNS = test system: SNB-75 CNS
NCI/ADR-RES ovarian = test system: NCI/ADR-RES ovarian
OVCAR-3 ovarian = test system: OVCAR-3 ovarian
OVCAR-4 ovarian = test system: OVCAR-4 ovarian
UACC-257 melanoma = test system: UACC-257 melanoma
SF-539 CNS = test system: SF-539 CNS
OVCAR-8 ovarian = test system: OVCAR-8 ovarian
RXF 393 renal = test system: RXF 393 renal
NCI-H460 lung = test system: NCI-H460 lung
MOLT-4 leukemia = test system: MOLT-4 leukemia
RPMI-8226 leukemia = test system: RPMI-8226 leukemia
SW-620 colon = test system: SW-620 colon
LOX IMVI melanoma = test system: LOX IMVI melanoma
HOP-62 NSCLC = test system: HOP-62 NSCLC
EKVX NSCLC = test system: EKVX NSCLC
CCRF-CEM leukemia = test system: CCRF-CEM leukemia
UACC-62 melanoma = test system: UACC-62 melanoma
HL-60(TB) leukemia = test system: HL-60(TB) leukemia
SN12C renal = test system: SN12C renal
HT29 colon = test system: HT29 colon
SF-268 CNS = test system: SF-268 CNS
KM12 colon = test system: KM12 colon
T-47D breast = test system: T-47D breast
SK-MEL-28 melanoma = test system: SK-MEL-28 melanoma
HCC-2998 colon = test system: HCC-2998 colon
MDA-MB-231 breast = test system: MDA-MB-231 breast
SF-295 CNS = test system: SF-295 CNS

`Cc1ccc2c(n1)C(=O)C(Cl)=C(Nc1ccc(C(F)(F)F)cc1)C2=O` gave a GI50 (NCI-H522 lung) of 2 µM, a TGI (NCI-H522 lung) of 4.93 µM and a GI50 (CAKI-1 renal) of 1.53 µM. For the same compound, the TGI (CAKI-1 renal) was 3.01 µM, the GI50 (HCT-15 colon) was 1.36 µM and the TGI (HCT-15 colon) was 3.13 µM. The GI50 (BT-549 breast) was 1.78 µM, the TGI (BT-549 breast) was 3.33 µM and the GI50 (OVCAR-5 ovarian) was 5.07 µM. The TGI (OVCAR-5 ovarian) was 19.8 µM, the GI50 (HOP-92 NSCLC) was 1.49 µM and the TGI (HOP-92 NSCLC) was 3.19 µM. It also gave a GI50 (ACHN renal) of 1.82 µM, a TGI (ACHN renal) of 3.42 µM and a GI50 (SNB-19 CNS) of 11.6 µM. The TGI (SNB-19 CNS) was > 100 µM, the GI50 (SK-MEL-2 melanoma) was 7.2 µM and the TGI (SK-MEL-2 melanoma) was 32.8 µM. It also gave a GI50 (COLO 205 colon) of 2.21 µM, a TGI (COLO 205 colon) of 4.83 µM and a GI50 (DU-145 prostate) of 1.87 µM. It also gave a TGI (DU-145 prostate) of 3.41 µM, a GI50 (HCT-116 colon) of 0.569 µM and a TGI (HCT-116 colon) of 2.02 µM. For the same compound, the GI50 (M14 melanoma) was 1.74 µM, the TGI (M14 melanoma) was 3.36 µM and the GI50 (K-562 leukemia) was 0.291 µM. It also gave a TGI (K-562 leukemia) of 2.23 µM, a GI50 (UO-31 renal) of 1.37 µM and a TGI (UO-31 renal) of 2.75 µM. It also gave a GI50 (NCI-H23 lung) of 2.02 µM, a TGI (NCI-H23 lung) of 5.58 µM and a GI50 (786-0 renal) of 1.84 µM. For the same compound, the TGI (786-0 renal) was 3.7 µM, the GI50 (MDA-MB-435) was 2.12 µM and the TGI (MDA-MB-435) was 4.49 µM. For the same compound, the GI50 (HS 578T breast) was 5.46 µM, the TGI (HS 578T breast) was 59.7 µM and the GI50 (IGROV1 ovarian) was 1.82 µM. The TGI (IGROV1 ovarian) was 4.04 µM, the GI50 (NCI-H226 lung) was 1.89 µM and the TGI (NCI-H226 lung) was 4.72 µM. The GI50 (SR leukemia) was 0.367 µM, the TGI (SR leukemia) was 2.37 µM and the GI50 (A549 NSCLC) was > 100 µM. The TGI (A549 NSCLC) was > 100 µM, the GI50 (TK-10 renal) was 2.28 µM and the TGI (TK-10 renal) was 3.75 µM. The GI50 (MCF7 breast) was 1.95 µM, the TGI (MCF7 breast) was 5.03 µM and the GI50 (MALME-3M melanoma) was 1.9 µM. For the same compound, the TGI (MALME-3M melanoma) was 3.78 µM, the GI50 (PC-3 prostate) was 3.7 µM and the TGI (PC-3 prostate) was 20.7 µM. For the same compound, the GI50 (A498 renal) was 40.2 µM, the TGI (A498 renal) was > 100 µM and the GI50 (SK-OV-3 ovarian) was > 100 µM. The TGI (SK-OV-3 ovarian) was > 100 µM, the GI50 (U251 CNS) was 4.93 µM and the TGI (U251 CNS) was 20.5 µM. The GI50 (SK-MEL-5 melanoma) was 6.03 µM, the TGI (SK-MEL-5 melanoma) was 21.2 µM and the GI50 (SNB-75 CNS) was > 100 µM. The TGI (SNB-75 CNS) was > 100 µM, the GI50 (NCI/ADR-RES ovarian) was 2.62 µM and the TGI (NCI/ADR-RES ovarian) was 8.06 µM. It also gave a GI50 (OVCAR-3 ovarian) of 1.61 µM, a TGI (OVCAR-3 ovarian) of 3.03 µM and a GI50 (OVCAR-4 ovarian) of 1.69 µM. The TGI (OVCAR-4 ovarian) was 4.31 µM, the GI50 (UACC-257 melanoma) was 1.7 µM and the TGI (UACC-257 melanoma) was 3.27 µM. For the same compound, the GI50 (SF-539 CNS) was 1.92 µM, the TGI (SF-539 CNS) was 3.95 µM and the GI50 (OVCAR-8 ovarian) was 3.26 µM. The TGI (OVCAR-8 ovarian) was > 100 µM, the GI50 (RXF 393 renal) was 1.57 µM and the TGI (RXF 393 renal) was 2.95 µM. The GI50 (NCI-H460 lung) was > 100 µM, the TGI (NCI-H460 lung) was > 100 µM and the GI50 (MOLT-4 leukemia) was 0.347 µM. The TGI (MOLT-4 leukemia) was 2.99 µM, the GI50 (RPMI-8226 leukemia) was 2.23 µM and the TGI (RPMI-8226 leukemia) was 6.08 µM. The GI50 (SW-620 colon) was 1.13 µM, the TGI (SW-620 colon) was 3.73 µM and the GI50 (LOX IMVI melanoma) was 1.22 µM. For the same compound, the TGI (LOX IMVI melanoma) was 3.04 µM, the GI50 (HOP-62 NSCLC) was > 100 µM and the TGI (HOP-62 NSCLC) was > 100 µM. It also gave a GI50 (EKVX NSCLC) of 1.68 µM, a TGI (EKVX NSCLC) of 3.98 µM and a GI50 (CCRF-CEM leukemia) of 0.879 µM. The TGI (CCRF-CEM leukemia) was 3.89 µM, the GI50 (UACC-62 melanoma) was 2.74 µM and the TGI (UACC-62 melanoma) was 10.7 µM. It also gave a GI50 (HL-60(TB) leukemia) of 1.4 µM, a TGI (HL-60(TB) leukemia) of 3.76 µM and a GI50 (SN12C renal) of 2.31 µM. The TGI (SN12C renal) was 6.51 µM, the GI50 (HT29 colon) was 2.81 µM and the TGI (HT29 colon) was 7.43 µM. For the same compound, the GI50 (SF-268 CNS) was 3.57 µM, the TGI (SF-268 CNS) was 16.5 µM and the GI50 (KM12 colon) was 70.3 µM. For the same compound, the TGI (KM12 colon) was > 100 µM, the GI50 (T-47D breast) was 1.55 µM and the TGI (T-47D breast) was 5.06 µM. The GI50 (SK-MEL-28 melanoma) was 2.06 µM, the TGI (SK-MEL-28 melanoma) was 3.85 µM and the GI50 (HCC-2998 colon) was 3.14 µM. The TGI (HCC-2998 colon) was 9.98 µM, the GI50 (MDA-MB-231 breast) was 1.84 µM and the TGI (MDA-MB-231 breast) was 4.63 µM. The GI50 (SF-295 CNS) was > 100 µM and the TGI (SF-295 CNS) was > 100 µM.
